Assays:
Mtb H37Rv = test system: Mtb H37Rv; design: method as in Sorrentino et al, 2015; settings: ref Sorrentino et al, 2015; cited from earlier work
[1] = test system: M. marinum in A. castellanii; format: cell-based, Mycobacterium marinum
M. marinum luxCDABE = format: cell-based, Mycobacterium marinum
M. marinum GFP = format: cell-based, Mycobacterium marinum; settings: 10 µM; antibiotic assay
[2] = test system: M. marinum in BV2 microglial cells; format: cell-based, Mycobacterium marinum
D. discoideum GFP-ABD = settings: 10 µM
Mtb H37Rv in THP-1 = test system: Mtb H37Rv in THP-1; design: method as in Sorrentino et al, 2015; settings: ref Sorrentino et al, 2015, cited from earlier work; for Intracelullar MIC90 in THP-1: THP1 / Mtb H37Rv infection assay; for Extracellular MIC90/ Inracellular MIC90: ratio

Compound	Extracellular MIC90 (Mtb H37Rv)	A. castellanii / M. marinum normalised growth, control=1.00, mean ([1]; 10 µM)	M. marinum luxCDABE normalised growth, control=1.00, mean (M. marinum luxCDABE; 10 µM)	M. marinum GFP normalised growth, control=1.00, mean (M. marinum GFP)	IC50 [2]	BV2 / M. marinum normalised growth, control=1.00, mean ([2]; 10 µM)	D. discoideum GFP-ABD normalised growth, control=1.00, mean (D. discoideum GFP-ABD)	Intracelullar MIC90 in THP-1 (Mtb H37Rv in THP-1)	Extracellular MIC90/ Inracellular MIC90 (Mtb H37Rv in THP-1)	Hits A. castellanii/M. marinum assay True/False ([1]; 10 µM)	M. marinum luxCDABE normalised growth, control = 1.00, mean (M. marinum luxCDABE; 10 µM)	hit in BV2/M. marinum assay True/False ([2]; 10 µM)	Antibiotic assays: M. marinum luxCDABE (M. marinum luxCDABE)	Intracellular infection assays: A. castellanii / M. marinum [1]	Intracellular infection assays: BV2 / M. marinum [2]
Br.CC(C)(C)c1ccccc1OCCCON1C(=N)N=C(N)NC1(C)C [BRL-7940SA]	2.3 µM	2.62	0.00	0.04	3.14 µM	0.53	0.67	1.85 µM	1.24	–	–	–	–	–	–
Br.CC1(C)N=C(N)N=C(N)N1OCCc1ccc2ccccc2c1 [BRL-8088SA]	2.3 µM	2.26	0.00	0.05	2.81 µM	0.52	0.71	5.55 µM	0.41	–	–	–	–	–	–
Br.Cc1ccccc1OCCCON1C(=N)N=C(N)NC1(C)C [BRL-8903SA]	3.8 µM	2.27	0.00	0.06	4.27 µM	0.52	0.88	16.65 µM	0.23	–	–	–	–	–	–
Br.CCc1ccccc1OCCCON1C(=N)N=C(N)NC1(C)C [BRL-10143SA]	3.2 µM	2.62	0.00	0.04	4.19 µM	0.55	0.53	1.85 µM	1.73	–	–	–	–	–	–
Br.CC1(C)NC(N)=NC(=N)N1OCCCOc1ccc(Cl)cc1Cl [BRL-51091AM]	3.5 µM	1.95	0.00	1.23	1.8 µM	0.51	0.97	5.55 µM	0.63	–	–	–	–	–	–
Nc1cccnc1Nc1ccc(Cl)cc1 [GR135486X]	0.2 µM	0.97	1.00	0.83	10.8 µM	0.75	0.35	5.55 µM	0.04	–	–	–	–	–	–
Cc1occc1C(=O)Nc1nc(-c2ccccn2)nc2ccsc12 [GSK237561A]	4 µM	1.57	0.00	0.31	3.9 µM	0.73	-0.0741	1.85 µM	2.16	–	–	–	–	–	–
N#Cc1ccc2c(c1)CCN(CCCSc1ccnc3cc(C(F)(F)F)ccc13)CC2 [GSK254610A]	–	0.87	0.00	0.05	–	0.50	0.88	–	–	FALSE	0,00	TRUE	–	–	–
CN1CCN(c2cc(-c3ccncc3)nc(-c3ccccc3)n2)CC1 [GSK275984A]	9 µM	1.13	0.065	0.26	5.11 µM	0.62	0.52	5.55 µM	1.62	–	–	–	–	–	–
COc1cc(C(F)(F)F)nc2ccc(C)c(N)c12 [GSK345724A]	5.3 µM	1.16	0.31	0.29	8.6 µM	0.87	0.95	1.85 µM	2.86	–	–	–	–	–	–
Clc1ccc(Nc2nc(-c3ccccn3)cs2)nc1 [GSK445886A]	–	1.31	0.075	0.31	1.75 µM	0.84	–	>50 µM	–	–	–	–	–	–	–
COc1ccc2sc(Nc3nc(-c4ccccn4)cs3)nc2c1 [GSK690382A]	–	1.07	0.00	0.98	11.9 µM	0.85	1.25	–	–	–	–	–	–	–	–
O=C(COc1cccc(F)c1)Nc1nc(-c2ccccn2)cs1 [GSK920684A]	–	–	–	–	–	–	–	50 µM	–	–	–	–	0.00	–	–
CSc1ccc(C(=O)Nc2nc(-c3ccccn3)cs2)cc1 [GSK921295A]	8.7 µM	–	–	–	–	–	–	50 µM	0.17	–	–	–	0.00	1.37	1.23
O=C(O)C(F)(F)F.c1ccc(C[C@H]2CN(c3nccc(Oc4ccc(-n5ccnc5)cc4)n3)CCN2)cc1 [GSK1519001A]	–	1.14	0.18	0.97	–	0.74	0.76	–	–	–	–	–	–	–	–
CSc1ccc(-c2nnc(NC(=O)c3ccc(Cl)s3)o2)cc1 [GSK1650514A]	–	1.31	0.00	0.91	19.7 µM	0.90	1.16	>50 µM	–	–	–	–	–	–	–
Cc1ccc2[nH]c(C3CCCNC3)c(-c3ccncc3)c2c1 (stereo not shown) [GSK1905227A]	–	1.23	0.08	0.55	9.76 µM	0.77	0.85	–	–	–	–	–	–	–	–
COc1cc(CN2CCC3(C=Cc4ccccc43)CC2)cc2c1OCO2 [SB-354364]	–	1.02	1.00	0.83	16.8 µM	0.80	0.86	–	–	–	–	–	–	–	–

Source: paper PMC5834492, “Antimycobacterial drug discovery using Mycobacteria-infected amoebae identifies anti-infectives and new molecular targets” (Scientific Reports, 2018)
